Assay results as given in US20200399329A1, “ANTIMICROBIAL PEPTIDES” (priority 2015, published 2020).
Values after ≈ are worked out from the molar mass of the structure shown. Blank lines part the entries; values can stand above or below the compound they belong to. Where a SMILES comes first, the peptide text is derived from it. Bridges are numbered along the chain shown (N, C = ends). Where no end group is shown, it is not given here.

Columns and labels:
P. aeruginosa BAA-2795 = assay type: cell-based, Pseudomonas aeruginosa
Method: (§1) In order to determine the MIC values of the peptides, growth and inhibition of various bacteria were monitored after treatment with the peptides of the invention (Table B). E. coli, K. pneumoniae, P. aeruginosa and Salmonella bacteria were cultured at 37° C. and at 5×10^6 CFU/ml in a standard 96-well-plate, in Mueller Hinton broth. […] The growth of the bacteria was continuously monitored via spectrophotometry at a wave-length of 625 nm. As bacterial growth progresses, Optical density at 625 nm (OD625 nm) values increase, and where the bacterial growth is inhibited, OD625 nm values remain constant. The experimental system and parameters described herein were used to determine the MIC values of OMN3, OMN5, OMN8 and OMN9 on various bacteria strains (Table B). Using the standard MHB MIC testing for antibiotic activity

E. coli strains = assay type: cell-based
Method: as §1

P. aeruginosa BAA-2110 [1] = assay type: cell-based, Pseudomonas aeruginosa
Method: (§2) In order to determine the MIC values of the peptides, growth and inhibition of various bacteria were monitored after treatment with the peptides of the invention (Table 6).
(§3) E. coli bacteria were cultured with or without OMN6 in increasing concentrations of 0.8-200 μM and with or without Fetal Bovine Serum 10% for 17-20 hours. The growth of the bacteria was continuously monitored via spectrophotometry at 600 nm. As bacterial growth progresses, OD600 nm values rise, and where the growth is inhibited OD600 nm values remain constant.
(§4) The experimental system and parameters described here were used to determine the MIC values of OMN2, OMN6, OMN7 and OMN11 on various bacteria strains (Table 7 and Table 8).

P. aeruginosa BAA-2110 [2] = assay type: cell-based, Pseudomonas aeruginosa; remark: listed apart in the source
Method: (§5) In order to determine the Minimal Bactericidal Concentration (MBC) values of the peptides, colony formation of various bacteria strains was monitored and determined after treatment with the peptides of the invention. Multi-Drug Resistant A. baumannii bacteria were cultured with or without OMN6 in increasing concentrations, as is detailed in FIG. 6 and Example 6. Immediately afterwards, samples of each experimental group were diluted to 1×10^4 to 1×10^6 as necessary, and further, the samples were plated on appropriate medium-agar plates. All the plates were incubated at 37° C. for 24-48 hours. Colonies were counted and CFU/ml in the original sample, prior to plating, were calculated and determined. An example of the plates, after incubation, is presented in FIG. 7 where the plate on the left side of the image is the CTRL sample treated with DDW and in the right side of the image increasing concentrations of OMN6 are presented, as specified therein.
(§6) The experimental system and parameters described here were used to determine the MBC values of OMN2, OMN6, OMN7 and OMN11 on various bacteria strains with and without the supplementation of 10% FBS (Table 6 and Table 8).

E. coli CR BAA-2452 = assay type: cell-based, Escherichia coli
Method: as §1

E. coli ESBL BAA-198 = assay type: cell-based, Escherichia coli
Method: as §1

[3] = test system: E. coli Sens. 25922 QC strain; assay type: cell-based, Escherichia coli
Method: as §1

K. pneu NDM1 BAA-2473 = assay type: cell-based, Klebsiella pneumoniae
Method: as §1

E. coli Sens. 25922 [4] = assay type: cell-based, Escherichia coli; details: Sens. 25922
Method: as §2, §3, §4

E. coli Sens. 25922 [5] = assay type: cell-based, Escherichia coli
Method: as §5, §6

Proteinase-K = Proteinase-K (Parengyodontium album, UniProt P06873); assay: Proteinase-K (ProtK) proteolysis stability, Coommassie Blue stained gel; assay type: in vitro ADME; details: 10 μg protein, 2 hours at 37° C.
Proteinase-K, sequence (P06873 106-384, species assumed): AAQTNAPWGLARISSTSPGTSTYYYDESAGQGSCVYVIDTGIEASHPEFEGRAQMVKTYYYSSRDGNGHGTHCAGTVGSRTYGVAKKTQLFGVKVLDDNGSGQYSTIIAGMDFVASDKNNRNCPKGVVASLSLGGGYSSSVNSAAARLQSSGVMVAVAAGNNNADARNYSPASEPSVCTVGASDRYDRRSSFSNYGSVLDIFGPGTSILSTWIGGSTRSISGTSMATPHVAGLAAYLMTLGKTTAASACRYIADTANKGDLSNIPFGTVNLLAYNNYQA
Method: Proteinase-K (ProtK) was used to assess the stability of OMN6 versus native Cecropin A (CecA) and Bovine Serum Albumin (BSA) (See FIG. 1 A). 10 μg of each protein were incubated with increasing concentrations of between 5-20 ng of ProtK as specified, for 2 hours at 37° C. Samples were boiled at 100° C. for five minutes and separated on 15% acrylamide gel. The gel was then stained with Coommassie Blue and excess dye was removed over-night. […] In lane 2, the CecA band was weaker than the untreated sample band in lane 1. In lane 8, fragments of degraded BSA were detected, evidence of partial degradation.
The same experimental system as described above was used to assess the stability of OMN2, OMN7 and OMN11 against proteolytic degradation by ProtK (see FIG. 1B).

Compound: CC[C@H](C)[C@@H]1NC(=O)[C@H](C)NC(=O)[C@H](C)NC(=O)[C@H](C)NC(=O)[C@H](CCC(N)=O)NC(=O)CNC(=O)[C@H](C(C)C)NC(=O)[C@H]([C@@H](C)O)NC(=O)[C@H](C)NC(=O)[C@H](C(C)C)NC(=O)[C@H](C)NC(=O)[C@@H]2CCCN2C(=O)[C@H](C)NC(=O)[C@H](C)NC(=O)[C@H](CO)NC(=O)[C@H]([C@@H](C)O)NC(=O)[C@H](C(C)C)NC(=O)[C@H](C)NC(=O)[C@H](CC(=O)O)NC(=O)[C@H](CCCNC(=N)N)NC(=O)[C@H](C(C)C)NC(=O)[C@H](CCCNC(=N)N)NC(=O)[C@H](CCC(N)=O)NC(=O)CNC(=O)[C@H](C)NC(=O)[C@H](CCCNC(=N)N)NC(=O)[C@H](CCC(=O)O)NC(=O)[C@H](CC(C)C)NC(=O)[C@H](CCC(=O)O)NC(=O)[C@H](CCCCN)NC(=O)[C@H](Cc2ccccc2)NC(=O)[C@@H]2CCCN2C(=O)[C@H](CC(N)=O)NC(=O)[C@H](Cc2c[nH]c3ccccc23)NC(=O)[C@@H](NC(=O)[C@@H](N)CCSC)CSSC[C@@H](C(=O)O)NC(=O)[C@H](CCCNC(=N)N)NC(=O)[C@H](C)NC1=O [OMN3] (H-MCWNPFKELERAGQRVRDAVTSAAPAVATVGQAAAIARC-OH; disulfide 2-39; N-terminus and C-terminus assumed)
MIC (P. aeruginosa BAA-2795): 256 µg/mL (≈ 62.2 µM) | MIC for E. coli strains (E. coli strains): above 256 μg/mL

Compound: CC[C@H](C)[C@@H]1NC(=O)[C@H](C)NC(=O)[C@H](CC(=O)O)NC(=O)[C@H](CCCNC(=N)N)NC(=O)[C@H](C(C)C)NC(=O)[C@H](CCCNC(=N)N)NC(=O)[C@H](CCC(N)=O)NC(=O)CNC(=O)[C@H](C)NC(=O)[C@H](CCCNC(=N)N)NC(=O)[C@H](CCC(=O)O)NC(=O)[C@H](CC(C)C)NC(=O)[C@H](CCC(=O)O)NC(=O)[C@H](CCCCN)NC(=O)[C@H](Cc2ccccc2)NC(=O)[C@@H]2CCCN2C(=O)[C@H](CC(N)=O)NC(=O)[C@H](Cc2c[nH]c3ccccc23)NC(=O)[C@@H](NC(=O)[C@@H](N)CCSC)CSSC[C@@H](C(=O)O)NC(=O)[C@H](CCCCN)NC(=O)[C@H](C)NC(=O)[C@H](CC(C)C)NC(=O)[C@H](C)NC(=O)[C@H]([C@@H](C)O)NC(=O)[C@H](C)NC(=O)[C@H](CCC(N)=O)NC(=O)[C@H](C)NC(=O)[C@H](C(C)C)NC(=O)[C@H]([C@@H](C)O)NC(=O)[C@H](C)NC(=O)[C@H](C(C)C)NC(=O)[C@H](C)NC(=O)[C@@H]2CCCN2C(=O)CNC(=O)[C@H](C)NC(=O)[C@H](CO)NC(=O)[C@H]([C@@H](C)CC)NC1=O [OMN5] (H-MCWNPFKELERAGQRVRDAIISAGPAVATVAQATALAKC-OH; disulfide 2-39; N-terminus and C-terminus assumed)
MIC (P. aeruginosa BAA-2795): 256 µg/mL (≈ 61.8 µM) | MIC for E. coli strains (E. coli strains): above 256 μg/mL

Compound: Bovine Serum Albumin [BSA, reference compound]
Degradation by ProtK (gel band) (Proteinase-K; 5 ng ProtK): partially degrade | Degradation by ProtK (gel band) (Proteinase-K; 20 ng ProtK): completely degrade

Compound: KWKLFKKIEKVGQNIRDGIIKAGPAVAVVGQATQIAK-NH2 (C-terminus assumed) [CecA, reference compound]
Degradation by ProtK (gel band) (Proteinase-K; 5 ng ProtK): partially degrade | Degradation by ProtK (gel band) (Proteinase-K; 20 ng ProtK): completely degrade

Further lines, with some results ahead:

MIC (P. aeruginosa BAA-2110 [1]): 50 µM (≈ 205 µg/mL)
Compound: CC[C@H](C)[C@H](NC(=O)CNC(=O)[C@H](CC(=O)O)NC(=O)[C@H](CCCNC(=N)N)NC(=O)[C@@H](NC(=O)[C@H](CC(N)=O)NC(=O)[C@H](CCC(N)=O)NC(=O)CNC(=O)[C@@H](NC(=O)[C@H](CCCCN)NC(=O)[C@H](CCC(=O)O)NC(=O)[C@@H](NC(=O)[C@H](CCCCN)NC(=O)[C@H](CCCCN)NC(=O)[C@H](Cc1ccccc1)NC(=O)[C@@H](NC(=O)[C@H](CCCCN)NC(=O)[C@H](Cc1c[nH]c2ccccc12)NC(=O)[C@H](CCCNC(=N)N)NC(=O)[C@H](CS)NC(=O)[C@@H](N)CCSC)[C@@H](C)CC)[C@@H](C)CC)C(C)C)[C@@H](C)CC)C(=O)N[C@H](C(=O)N[C@@H](CCCCN)C(=O)N[C@@H](C)C(=O)NCC(=O)N1CCC[C@H]1C(=O)N[C@@H](C)C(=O)N[C@H](C(=O)N[C@@H](C)C(=O)N[C@H](C(=O)N[C@H](C(=O)NCC(=O)N[C@@H](CCC(N)=O)C(=O)N[C@@H](C)C(=O)N[C@@H](C)C(=O)N[C@H](C(=O)N[C@H](C(=O)N[C@@H](CS)C(N)=O)[C@@H](C)CC)[C@@H](C)O)C(C)C)C(C)C)C(C)C)C(C)C [OMN7] (H-MCRWKIFKKIEKVGQNIRDGIVKAGPAVAVVGQAATIC-NH2; N-terminus and C-terminus assumed)
MBC (P. aeruginosa BAA-2110 [2]): 50 µM (≈ 205 µg/mL)

MIC (E. coli CR BAA-2452): 32 µg/mL (≈ 7.67 µM) | MIC (E. coli ESBL BAA-198): 16 µg/mL (≈ 3.83 µM) | MIC [3]: 32 µg/mL (≈ 7.67 µM) | MIC (K. pneu NDM1 BAA-2473): 64 µg/mL (≈ 15.3 µM) | MIC for E. coli strains (E. coli strains): 16 to 32 µg/mL
Compound: CC[C@H](C)[C@@H]1NC(=O)CNC(=O)[C@H](CC(=O)O)NC(=O)[C@H](CCCNC(=N)N)NC(=O)[C@H]([C@@H](C)CC)NC(=O)[C@H](CC(N)=O)NC(=O)[C@H](CCCNC(=N)N)NC(=O)CNC(=O)[C@H](CCSC)NC(=O)[C@H](CCCCN)NC(=O)[C@H](CCC(=O)O)NC(=O)[C@H]([C@@H](C)CC)NC(=O)[C@H](CCCCN)NC(=O)[C@H](CCCCN)NC(=O)[C@H](Cc2ccccc2)NC(=O)[C@H]([C@@H](C)CC)NC(=O)[C@H](CCCCN)NC(=O)[C@H](Cc2c[nH]c3ccccc23)NC(=O)[C@H](CCCNC(=N)N)NC(=O)[C@@H](NC(=O)[C@@H](N)CCSC)CSSC[C@@H](C(=O)O)NC(=O)[C@H]([C@@H](C)CC)NC(=O)[C@H](C)NC(=O)[C@H](CCCCN)NC(=O)[C@H](C)NC(=O)[C@H](CO)NC(=O)CNC(=O)[C@H](CC(C)C)NC(=O)[C@H](C(C)C)NC(=O)[C@H](CCC(=O)O)NC(=O)[C@H]([C@@H](C)CC)NC(=O)[C@H](C)NC(=O)[C@@H]2CCCN2C(=O)CNC(=O)[C@H](C)NC(=O)[C@H](C)NC(=O)[C@H](C(C)C)NC1=O [OMN8] (H-MCRWKIFKKIEKMGRNIRDGIVAAGPAIEVLGSAKAIC-OH; disulfide 2-38; N-terminus and C-terminus assumed)

MIC (E. coli Sens. 25922 [4]): 25 µM (≈ 91.9 µg/mL) | MIC (P. aeruginosa BAA-2110 [1]): 40 µM (≈ 147 µg/mL)
Compound: CC[C@H](C)[C@H](NC(=O)CNC(=O)[C@H](CCC(=O)O)NC(=O)[C@H](CO)NC(=O)[C@@H](NC(=O)[C@H](CCCNC(=N)N)NC(=O)[C@H](CCCCN)NC(=O)[C@H](CCCCN)NC(=O)[C@H](C)NC(=O)[C@H](CO)NC(=O)[C@H](CC(N)=O)NC(=O)[C@H](CCC(=O)O)NC(=O)[C@H](CC(C)C)NC(=O)[C@H](CCCCN)NC(=O)[C@H](CCCCN)NC(=O)[C@H](C)NC(=O)[C@@H](NC(=O)[C@H](CCCCN)NC(=O)[C@H](CO)NC(=O)[C@H](CC(C)C)NC(=O)[C@H](Cc1c[nH]c2ccccc12)NC(=O)[C@H](CO)NC(=O)[C@H](CS)NC(=O)[C@@H](N)CCSC)[C@@H](C)O)[C@@H](C)CC)C(=O)N[C@@H](C)C(=O)N[C@H](C(=O)N[C@@H](C)C(=O)N[C@H](C(=O)N[C@@H](CCC(N)=O)C(=O)NCC(=O)NCC(=O)N1CCC[C@H]1C(=O)N[C@@H](CCCNC(=N)N)C(=O)N[C@@H](CS)C(N)=O)[C@@H](C)CC)[C@@H](C)CC [OMN11] (H-MCSWLSKTAKKLENSAKKRISEGIAIAIQGGPRC-NH2; N-terminus and C-terminus assumed)
MBC (E. coli Sens. 25922 [5]): 25 µM (≈ 91.9 µg/mL) | MBC (P. aeruginosa BAA-2110 [2]): 40 µM (≈ 147 µg/mL)
